Test results from publication PMC11303563 (Communications Medicine, 2024).
Where “and” joins values, the source holds several entries; their conditions need not be identical. Equal entries are not always repeated.

What was measured:
[1] = In vitro blood-brain barrier permeability assay (BBB kit RBT-24H); type: in vitro ADME, rat; settings: rat, 10 μM on luminal side, read-out: apparent permeability (Papp)
Description: Therefore, we tested BBB transparency in vitro using the BBB kit RBT-24H (PharmaCo-Cell)[35]. […] Blood-brain barrier permeability assay The blood-brain barrier (BBB) transparency of TH analogs was assessed in vitro using RBT-24H (PharmaCo-Cell)[5] according to the manufacturer 's protocol. […] After 30 min, the assay buffer in the wells mimicking the abluminal side was collected, and the concentration of the compounds was measured using liquid chromatography-mass spectrometry (LC-MS). […] These tips were preconditioned with 20 μL of acetonitrile and 20 μL of 0.1% TFA in purified water. 100 μL of the samples were loaded onto the preconditioned tips, washed with 200 μL of DW, and then eluted with 10 μL of acetonitrile. Triazine (1% vol/vol) was added to the eluent as an internal standard. […] 3 μm; Imtakt, Kyoto, Japan). All the experiments were performed using an Ultimate 3000 UHPLC system coupled with a Q Exactive Plus Orbitrap mass spectrometer (Thermo Fisher Scientific). […] Data were shown as mean ± standard deviation (n=3).

[2] = test system: high-fat diet (HFD)-induced obesity model mice; experiment: Serum lipid analysis (total cholesterol, triglycerides) in HFD mice; type: in vivo, C57BL/6J mice; set-up: Serum TC (Fig. 4a), individual mouse values / Serum TG (Fig. 4b), individual mouse values / Serum TC (Fig. 4a), Mean Diff. ND vs. treatment (Tukey) / Serum TC (Fig. 4a), Mean Diff. Vehicle vs. treatment (Tukey) / Serum TC (Fig. 4a), group mean (Mean 2) / Mean Diff., ND vs. treated (Fig. 4b) / Mean Diff., Vehicle vs. treated (Fig. 4b) / Mean (Fig. 4b): unit not given here; settings: for Serum TC (Fig. 4a), group mean (Mean 2) / Mean (Fig. 4b): n=10; for Serum TC (Fig. 4a), Mean Diff. ND vs. treatment (Tukey): ND minus treated; for Serum TC (Fig. 4a), Mean Diff. Vehicle vs. treatment (Tukey): Vehicle minus treated; for Mean Diff., ND vs. treated (Fig. 4b) / Mean Diff., Vehicle vs. treated (Fig. 4b): Tukey's multiple comparisons test; for Mean (Fig. 4b): group mean
Description: Fig. 4 Effects of TH analogs on the accumulation of lipids in mice. […] After 3 weeks of injection, serum and liver tissues were collected, and the amount of serum cholesterol (a), serum triglycerides (b), liver cholesterol (c), liver triglycerides (d), and liver total lipids (e) were measured.

[3] = test system: THR-regulated genes and lipid metabolism-related genes in the liver
[4] = test system: high-fat diet (HFD)-induced obesity model mice; experiment: Body weight of high-fat diet-induced obesity model mice; type: in vivo, C57BL/6J mice; set-up: Body weight, Mean Diff. ND vs. treated: unit not given here; settings: for Body weight, 95.00% CI of diff. ND vs. treated / Body weight, Mean Diff. ND vs. treated: ND group as comparator; for Body weight, 95.00% CI of diff. ND vs. treated / Body weight, Mean Diff. ND vs. treated / Body weight, 95.00% CI of diff. Vehicle vs. treated / Body weight, Mean Diff. Vehicle vs. treated: Tukey's multiple comparisons test; for Body weight, Mean Diff. Vehicle vs. treated / Body weight, group mean (Fig. 3a) / Body weight, individual mice (Fig. 3a): in g (unit assumed); for Body weight, group mean (Fig. 3a): n 10
Description: The injection was given 6 h after light on. Food consumption and body weights were measured weekly. Food and water were provided to the animals ad libitum. The animals were treated according to the guidelines of Nagoya University, and all experimental procedures were approved by the Animal Experiment Committee of Nagoya University (A210715-003).
(§1) Epididymal adipose tissue was weighed.
(§2) Fig. 3 Effects of intraperitoneal injection of TH analogs on body weight and deposition of visceral fat. […] After three weeks of injection, body weight (a), and weight of the epididymal adipose tissue (b) were measured.

[5] = test system: high-fat diet (HFD)-induced obesity model mice; experiment: Weight of epididymal adipose tissue (visceral fat) in HFD mice; type: in vivo, C57BL/6J mice; settings: for Fig. 3b (weight of epididymal adipose tissue), group mean (Mean 2) / Epididymal adipose weight, individual mice (Fig. 3b) / weight of the epididymal adipose tissue vs vehicle: HFD mice; for Fig. 3b (weight of epididymal adipose tissue), group mean (Mean 2): n=10; for Fig. 3b (weight of epididymal adipose tissue), group mean (Mean 2) / Fig. 3b (weight of epididymal adipose tissue), Mean Diff. ND vs. treatment (Tukey) / Fig. 3b (weight of epididymal adipose tissue), Mean Diff. Vehicle vs. treatment (Tukey) / Epididymal adipose weight, individual mice (Fig. 3b): in mg (unit assumed); for Fig. 3b (weight of epididymal adipose tissue), Mean Diff. ND vs. treatment (Tukey): ND minus treated; for Fig. 3b (weight of epididymal adipose tissue), Mean Diff. Vehicle vs. treatment (Tukey): Vehicle minus treated; for weight of the epididymal adipose tissue vs vehicle: 3 weeks
Description: as §1, §2

[6] = HFD mice, i.p. 1 µmol/kg day, 3 weeks
[7] = HFD mice, 1 μmol/kg day, RT-qPCR, reference gene Rps18
[8] = liver gene expression, 1µmol dose group vs. Vehicle

## O=C(O)Cc1cc(C(F)(F)F)c(Cc2ccc(O)c3ccccc23)c(C(F)(F)F)c1 [ZTA-261]
[1]
  Papp at 30 min, 10 µM: 7.28 ± 2.55 ×10⁻⁶ cm/s
[2]; 0.1 µmol, HFD mice
  Serum TC (Fig. 4a), individual mouse values: 170.917 and 174.042 and 146.958 and 171.875 and 171.042 and 164.292 and 178.75 and 197.208 and 153.333 and 201.333
  Serum TG (Fig. 4b), individual mouse values: 76.25 and 92.083 and 101.25 and 78.417 and 57.583 and 89.25 and 104.25 and 84.25 and 81.75
  Serum TC (Fig. 4a), group mean (Mean 2): 173
  Mean (Fig. 4b): 84.35
[2]; 0.1 µmol
  Serum TC (Fig. 4a), Mean Diff. ND vs. treatment (Tukey): 6.447
  Serum TC (Fig. 4a), Mean Diff. Vehicle vs. treatment (Tukey): 77.09
[2]; 1 µmol, HFD mice
  Serum TC (Fig. 4a), individual mouse values: 100.083 and 106.125 and 141.958 and 148.125 and 147.292 and 139.708 and 132.5 and 117.5 and 94.583 and 113
  Serum TG (Fig. 4b), individual mouse values: 52.917 and 53.75 and 90.417 and 88.75 and 67.917 and 87.917 and 73.75 and 69.583 and 82.083 and 85.417
  Serum TC (Fig. 4a), group mean (Mean 2): 124.1
  Mean (Fig. 4b): 75.25
[2]; 1 µmol
  Serum TC (Fig. 4a), Mean Diff. ND vs. treatment (Tukey): 55.33
  Serum TC (Fig. 4a), Mean Diff. Vehicle vs. treatment (Tukey): 126
[2]; ND minus 0.1 µmol group
  Mean Diff., ND vs. treated (Fig. 4b): 62.42
[2]; ND minus 1 µmol group
  Mean Diff., ND vs. treated (Fig. 4b): 71.52
[2]; Vehicle minus 0.1 µmol group
  Mean Diff., Vehicle vs. treated (Fig. 4b): 31.43
[2]; Vehicle minus 1 µmol group
  Mean Diff., Vehicle vs. treated (Fig. 4b): 40.53
[2]; [6]
  serum triglyceride level vs vehicle: decreased
[3]; 1µmol, one value per animal
  Cyp7a1 expression in the liver, individual animal values: 0.6381 and 0.6001 and 0.9755 and 0.7051 and 0.7377 and 0.8699 and 1.225 and 1.875 and 1.688 and 1.407
  Dio1 expression in the liver, individual animal values: 2.348 and 0.8674 and 3.4594 and 3.712 and 3.243 and 4.342 and 3.767 and 2.33 and 3.714 and 5.338
  Ldlr expression in the liver, individual animal values: 0.4288 and 1.672 and 1.891 and 1.348 and 1.361 and 2.264 and 2.662 and 1.059 and 1.183 and 1.422
  Me1 expression in the liver, individual animal values: 2.009 and 0.7713 and 1.636 and 2.32 and 2.026 and 3.023 and 3.213 and 2.688 and 3.436 and 4.664
  Pnpla2 expression in the liver, individual animal values: 1.268 and 0.9327 and 2.591 and 7.772 and 2.012 and 5.634 and 5.017 and 1.649 and 3.705 and 2.077
  Srebp1c expression in the liver, individual animal values: 0.1054 and 0.05247 and 0.1951 and 0.3686 and 0.2695 and 0.5078 and 0.5858 and 0.293 and 0.5057 and 0.124
  Thrsp expression in the liver, individual animal values: 1.26 and 1.164 and 1.998 and 1.521 and 1.182 and 1.374 and 1.7691 and 1.941 and 1.759 and 2.356
[3]; [7]
  liver expression of Cyp7a1 vs vehicle: not significantly different
  liver expression of Dio1 vs vehicle: significantly upregulated
  liver expression of Ldlr vs vehicle: not significantly different
  liver expression of Me1 vs vehicle: significantly upregulated
  liver expression of Pnpla2 vs vehicle: significantly higher
  liver expression of Srebp1c vs vehicle: Although not statistically significant, the ZTA-261-treated group showed decreased Srebp1c expression
  liver expression of Thrsp vs vehicle: increased
[3]; [8]
  Pnpla2, Dunn's multiple comparisons test, Mean rank diff. (Vehicle vs. compound): -17.5
  Srebp1c, Dunn's multiple comparisons test, Mean rank diff. (Vehicle vs. compound): 13.17
[3]; liver gene expression, 1µmol dose group, Vehicle mean rank 8
  Pnpla2, Mean rank of treatment group (Mean rank 2): 25.5
[3]; liver gene expression, 1µmol dose group, Vehicle mean rank […]
  Srebp1c, Mean rank of treatment group (Mean rank 2): 20.5
[4]; 0.1 µmol dose group
  Body weight, 95.00% CI of diff. ND vs. treated: -17.31 to -8.599
  Body weight, Mean Diff. ND vs. treated: -12.95
  Body weight, 95.00% CI of diff. Vehicle vs. treated: -2.779 to 5.659
  Body weight, Mean Diff. Vehicle vs. treated: 1.44
[4]; 1 µmol dose group
  Body weight, 95.00% CI of diff. ND vs. treated: -11.31 to -2.596
  Body weight, Mean Diff. ND vs. treated: -6.951
  Body weight, 95.00% CI of diff. Vehicle vs. treated: 3.224 to 11.66
  Body weight, Mean Diff. Vehicle vs. treated: 7.443
[4]; HFD mice, 0.1 µmol dose group
  Body weight, group mean (Fig. 3a): 41.47
  Body weight, individual mice (Fig. 3a): 40.29 and 36.71 and 35.46 and 47.2 and 43.74 and 41.64 and 46.66 and 44.04 and 36.76 and 42.23
[4]; HFD mice, 1 µmol dose group
  Body weight, group mean (Fig. 3a): 35.47
  Body weight, individual mice (Fig. 3a): 32.91 and 31.68 and 37.61 and 39.1 and 35.68 and 36.65 and 37.77 and 35.13 and 35.26
[4]; HFD mice, i.p. 0.1 µmol/kg day, 3 weeks
  body weight vs vehicle (in words): did not significantly reduce body weight
[4]; [6]
  decrease of body weight compared to vehicle: ~ 20%
[5]; 0.1 µmol
  Fig. 3b (weight of epididymal adipose tissue), group mean (Mean 2): 2650
  Fig. 3b (weight of epididymal adipose tissue), Mean Diff. ND vs. treatment (Tukey): -1966
  Fig. 3b (weight of epididymal adipose tissue), Mean Diff. Vehicle vs. treatment (Tukey): 208.4
[5]; 1 µmol
  Fig. 3b (weight of epididymal adipose tissue), group mean (Mean 2): 1679
  Fig. 3b (weight of epididymal adipose tissue), Mean Diff. ND vs. treatment (Tukey): -996
  Fig. 3b (weight of epididymal adipose tissue), Mean Diff. Vehicle vs. treatment (Tukey): 1179
[5]; 0.1 µmol dose group
  Epididymal adipose weight, individual mice (Fig. 3b): 2776.2 and 2045.1 and 1929.4 and 2510.8 and 2876.4 and 3044.5 and 3312.5 and 2871.5 and 2180.4 and 2949.5
[5]; 1 µmol dose group
  Epididymal adipose weight, individual mice (Fig. 3b): 1625 and 1387 and 1309.2 and 1666.6 and 1860.1 and 1033.5 and 2042 and 1824.7 and 1973.2 and 2072
[5]; i.p. 0.1 µmol/kg day
  weight of the epididymal adipose tissue vs vehicle: did not show any obvious effect
[5]; i.p. 1 µmol/kg day
  weight of the epididymal adipose tissue vs vehicle: decreased significantly
